Assay results taken from US20260102401A1, “Combination Therapies” (MIRATI THERAPEUTICS, INC., priority 2022, published 2026).

Tested on: H2122 cells
Experiment: H2122 cell-line derived xenograft model, tumor volumes
Type: in vivo, nude/nude mice
Settings: for tumor growth inhibition: Day 17, single agent, H2122 xenograft, 100 mg/kg Compound 478 or 50 mg/kg olaparib p.o. daily; for Average Tumor Volumes: H2122 tumor bearing mice, 100 mg/kg Compound 478 and/or 50 mg/kg olaparib p.o. daily
Protocol: Immunocompromised nude/nude mice were inoculated in the right hind flank with cells or patient derived tumor samples harboring a KRas G12C mutation. When tumor volumes reach ˜300 mm^3 in size, the mice were divided into four groups of 5 mice each. The first group was administered vehicle only. […] The fourth group was orally administered the single agent dose of the KRas G12C inhibitor in combination with the single agent dose of the PARP inhibitor at the matched schedule. The treatment period was 17 days. Tumor volumes were measured using a caliper every two-three days and tumor volumes are calculated by the formula: […].
For example, twenty nude/nude mice were inoculated in the right hind limb with 5×10^6 H2122 cells. When tumor volume reached ˜300 mm^3 (Study Day 1), 5 mice in each of the […] groups were administered p.o. daily for 32 days: vehicle only (10% Captisol in 50 mM citrate buffer pH5.0), 100 mg/kg of KRas G12C inhibitor Compound 478 (10% Captisol in 50 mM citrate buffer, pH 5.0), 50 mg/kg of the PARP inhibitor olaparib (10% Captisol in 50 mM citrate buffer, pH 5.0), or 100 mg/kg of KRas G12C inhibitor Compound 478 and 50 mg/kg of olaparib. Dosing stopped on day 17 for all groups due to large tumor growth in the vehicle and Olaparib only groups.

Row | Compound | tumor growth inhibition | Average Tumor Volumes (Study Day 3) | Average Tumor Volumes (Study Day 6) | Average Tumor Volumes (Study Day 10) | Average Tumor Volumes (Study Day 13) | Average Tumor Volumes (Study Day 17) | Average Tumor Volumes (Study Day −1 (before dosing))
1 | C=C(F)C(=O)N1CCN(c2nc(OC[C@@H]3CCCN3C)nc3c2CCN(c2cccc4cccc(Cl)c24)C3)C[C@@H]1CC#N [Compound 478, adagrasib] | 89% | 290.578 mm^3 | 301.744 mm^3 | 326.222 mm^3 | 345.38 mm^3 | 360.308 mm^3 | 284.794 mm^3
2 | O=C(c1cc(Cc2n[nH]c(=O)c3ccccc23)ccc1F)N1CCN(C(=O)C2CC2)CC1 [Olaparib, 4-[[3-[4-(cyclopropanecarbonyl)piperazine-1-carbonyl]-4-fluorophenyl]methyl]-2H-phthalazin-1-one] | 0% | 451.342 mm^3 | 558.15 mm^3 | 776.514 mm^3 | 848.664 mm^3 | 1058.96 mm^3 | 292.194 mm^3
